In patent publication US9833497B2, “Human originated EGF domain proteins and use of the same” (CHENGDU SOURCEBIO LIMITED-LIABILITY COMPANY, priority 2013, dated 2017):

Legend:
Assay type in all cases: cell-based
E. coli DH5α = experiment: Antibacterial activity: MIC and growth curve against E. coli DH5α in 96-well plate; details: minimal inhibitory concentration against E. coli DH5α; 96-well plate, 5×10^5 CFU/mL, 37° C., judged after 8 h
Summary of the method: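 Log-phase bacteria (OD600 ~0.5) resuspended in LB at 5×10^5 CFU/mL, exposed to recombinant protein at 50, 25, 12.5 μg/mL final in triplicate, 37 °C shaking at 175 rpm. OD600 read every 30 min; MIC is lowest concentration showing no growth.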

E. coli BL21 = experiment: MIC against Gram-negative bacteria: E. coli BL21; details: 5×10^5 CFU/mL
Summary of the method: (§1)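 Two-fold serial dilutions of each purified human EGF domain protein, three replicate wells per level, were combined with bacteria at a final 5×10^5 CFU/mL in LB. Cultures were shaken at 175 rpm, 37° C. The MIC was taken as the minimum concentration preventing growth.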

Pseudomonas aeruginosa = experiment: MIC against Gram-negative bacteria: Pseudomonas aeruginosa; details: 5×10^5 CFU/mL
Summary of the method: as §1

Klebsiella pneumonia = experiment: MIC against Gram-negative bacteria: Klebsiella pneumonia; details: 5×10^5 CFU/mL
Summary of the method: as §1

Enterobacter cloacae = experiment: MIC against Gram-negative bacteria: Enterobacter cloacae; details: 5×10^5 CFU/mL
Summary of the method: as §1

Aeromonas hydrophila = experiment: MIC against Gram-negative bacteria: Aeromonas hydrophila; details: 5×10^5 CFU/mL
Summary of the method: as §1

Citrobacter diversus = experiment: MIC against Gram-negative bacteria: Citrobacter diversus; details: 5×10^5 CFU/mL
Summary of the method: as §1

Moraxella catarrhalis = experiment: MIC against Gram-negative bacteria: Moraxella catarrhalis; details: 5×10^5 CFU/mL
Summary of the method: as §1

Proteus mirabilis = experiment: MIC against Gram-negative bacteria: Proteus mirabilis; details: 5×10^5 CFU/mL
Summary of the method: as §1

Proteus vulgaris = experiment: MIC against Gram-negative bacteria: Proteus vulgaris; details: 5×10^5 CFU/mL
Summary of the method: as §1

Serratia marcescens = experiment: MIC against Gram-negative bacteria: Serratia marcescens; details: 5×10^5 CFU/mL
Summary of the method: as §1

[1] = E. coli BL21, 96-well plate, 37° C., 10 h
[2] = Pseudomonas aeruginosa, 96-well plate, 37° C., 10 h
[3] = Klebsiella pneumonia, 96-well plate, 37° C., 10 h
[4] = Enterobacter cloacae, 96-well plate, 37° C., 10 h
[5] = Aeromonas hydrophila, 96-well plate, 37° C., 10 h
[6] = Citrobacter diversus, 96-well plate, 37° C., 10 h
[7] = Moraxella catarrhalis, 96-well plate, 37° C., 10 h
[8] = Proteus mirabilis, 96-well plate, 37° C., 10 h
[9] = Proteus vulgaris, 96-well plate, 37° C., 10 h
[10] = Serratia marcescens, 96-well plate, 37° C., 10 h

Substance: PRT119 (CAPCPNNGRPTLSGTECLCVCQSGTYGENCE; listed as Homo sapiens)
- MIC (E. coli DH5α): 12.5 µg/mL
- MIC (μg/mL) E. coli BL21 (E. coli BL21; [1]): 50 µg/mL
- MIC (μg/mL) P. aeruginosa (Pseudomonas aeruginosa; [2]): 12.5 µg/mL
- MIC (μg/mL) K. pneumonia (Klebsiella pneumonia; [3]): 50 µg/mL
- MIC (μg/mL) E. cloacae (Enterobacter cloacae; [4]): 25 µg/mL
- MIC (μg/mL) A. hydrophila (Aeromonas hydrophila; [5]): 12.5 µg/mL
- MIC (μg/mL) C. diversus (Citrobacter diversus; [6]): 25 µg/mL
- MIC (μg/mL) M. catarrhalis (Moraxella catarrhalis; [7]): 50 µg/mL
- MIC (μg/mL) P. mirabilis (Proteus mirabilis; [8]): 25 µg/mL
- MIC (μg/mL) P. vulgaris (Proteus vulgaris; [9]): 12.5 µg/mL
- MIC (μg/mL) S. marcescens (Serratia marcescens; [10]): 12.5 µg/mL

Substance: PRT481 (EITACSSSPCFHDGTCVLDKAGSYKCACLAGYTGQRCE; listed as Homo sapiens)
- MIC (E. coli DH5α): 25 µg/mL
- MIC against E. coli BL21 (E. coli BL21; 96-well plate, 37° C., 10 h): 12.5 µg/mL
- MIC against P. aeruginosa (Pseudomonas aeruginosa; 96-well plate, 37° C., 10 h): 25 µg/mL
- MIC against K. pneumonia (Klebsiella pneumonia; 96-well plate, 37° C., 10 h): 50 µg/mL
- MIC against E. cloacae (Enterobacter cloacae; 96-well plate, 37° C., 10 h): 12.5 µg/mL
- MIC against A. hydrophila (Aeromonas hydrophila; 96-well plate, 37° C., 10 h): 50 µg/mL
- MIC against C. diversus (Citrobacter diversus; 96-well plate, 37° C., 10 h): 12.5 µg/mL
- MIC against M. catarrhalis (Moraxella catarrhalis; 96-well plate, 37° C., 10 h): 50 µg/mL
- MIC against P. mirabilis (Proteus mirabilis; 96-well plate, 37° C., 10 h): 12.5 µg/mL
- MIC against P. vulgaris (Proteus vulgaris; 96-well plate, 37° C., 10 h): 50 µg/mL
- MIC against S. marcescens (Serratia marcescens; 96-well plate, 37° C., 10 h): 12.5 µg/mL

Substance: PRT539 (CDCSGNSDPNLIFEDCDEVTGQCRNCLRNTTGFKCERCAPGYYGDARIAKNCAV; listed as Homo sapiens)
- MIC (E. coli DH5α): 12.5 µg/mL
- MIC against E. coli BL21 (E. coli BL21; 96-well plate, 37° C., 10 h): 50 µg/mL
- MIC against P. aeruginosa (Pseudomonas aeruginosa; 96-well plate, 37° C., 10 h): 12.5 µg/mL
- MIC against K. pneumonia (Klebsiella pneumonia; 96-well plate, 37° C., 10 h): 25 µg/mL
- MIC against E. cloacae (Enterobacter cloacae; 96-well plate, 37° C., 10 h): 50 µg/mL
- MIC against A. hydrophila (Aeromonas hydrophila; 96-well plate, 37° C., 10 h): 25 µg/mL
- MIC against C. diversus (Citrobacter diversus; 96-well plate, 37° C., 10 h): 12.5 µg/mL
- MIC against M. catarrhalis (Moraxella catarrhalis; 96-well plate, 37° C., 10 h): 25 µg/mL
- MIC against P. mirabilis (Proteus mirabilis; 96-well plate, 37° C., 10 h): 50 µg/mL
- MIC against P. vulgaris (Proteus vulgaris; 96-well plate, 37° C., 10 h): 12.5 µg/mL
- MIC against S. marcescens (Serratia marcescens; 96-well plate, 37° C., 10 h): 50 µg/mL

Substance: PRT1478 (GGSPCISQPCLHNGSCQDSIWGYTCTCSPGYEGSNCE; listed as Homo sapiens)
- MIC (E. coli DH5α): 50 µg/mL
- MIC against E. coli BL21 (E. coli BL21; E. coli BL21, 10 h cultivation at 37° C.): 12.5 µg/mL
- MIC against P. aeruginosa (Pseudomonas aeruginosa; Pseudomonas aeruginosa, 10 h cultivation at 37° C.): 50 µg/mL
- MIC against K. pneumonia (Klebsiella pneumonia; Klebsiella pneumonia, 10 h cultivation at 37° C.): 25 µg/mL
- MIC against E. cloacae (Enterobacter cloacae; Enterobacter cloacae, 10 h cultivation at 37° C.): 12.5 µg/mL
- MIC against A. hydrophila (Aeromonas hydrophila; Aeromonas hydrophila, 10 h cultivation at 37° C.): 50 µg/mL
- MIC against C. diversus (Citrobacter diversus; Citrobacter diversus, 10 h cultivation at 37° C.): 12.5 µg/mL
- MIC against M. catarrhalis (Moraxella catarrhalis; Moraxella catarrhalis, 10 h cultivation at 37° C.): 25 µg/mL
- MIC against P. mirabilis (Proteus mirabilis; Proteus mirabilis, 10 h cultivation at 37° C.): 50 µg/mL
- MIC against P. vulgaris (Proteus vulgaris; Proteus vulgaris, 10 h cultivation at 37° C.): 25 µg/mL
- MIC against S. marcescens (Serratia marcescens; Serratia marcescens, 10 h cultivation at 37° C.): 12.5 µg/mL

Substance: PRT100 (DVNECTSGQNPCHSSTHCLNNVGSYQCRCRPGWQPIPGSPNGPNNTVCE; listed as Homo sapiens)
- MIC (E. coli DH5α): 12.5 µg/mL
- MIC (μg/mL) E. coli BL21 (E. coli BL21; [1]): 12.5 µg/mL
- MIC (μg/mL) P. aeruginosa (Pseudomonas aeruginosa; [2]): 12.5 µg/mL
- MIC (μg/mL) K. pneumonia (Klebsiella pneumonia; [3]): 12.5 µg/mL
- MIC (μg/mL) E. cloacae (Enterobacter cloacae; [4]): 12.5 µg/mL
- MIC (μg/mL) A. hydrophila (Aeromonas hydrophila; [5]): 12.5 µg/mL
- MIC (μg/mL) C. diversus (Citrobacter diversus; [6]): 12.5 µg/mL
- MIC (μg/mL) M. catarrhalis (Moraxella catarrhalis; [7]): 12.5 µg/mL
- MIC (μg/mL) P. mirabilis (Proteus mirabilis; [8]): 12.5 µg/mL
- MIC (μg/mL) P. vulgaris (Proteus vulgaris; [9]): 25 µg/mL
- MIC (μg/mL) S. marcescens (Serratia marcescens; [10]): 12.5 µg/mL

Substance: PRT1329 (LPAVCTPPCSAHATCKENNTCECNLDYEGDGITCT; listed as Homo sapiens)
- MIC (E. coli DH5α): 12.5 µg/mL
- MIC against E. coli BL21 (E. coli BL21; [1]): 50 µg/mL
- MIC against P. aeruginosa (Pseudomonas aeruginosa; [2]): 12.5 µg/mL
- MIC against K. pneumonia (Klebsiella pneumonia; [3]): 50 µg/mL
- MIC against E. cloacae (Enterobacter cloacae; [4]): 12.5 µg/mL
- MIC against A. hydrophila (Aeromonas hydrophila; [5]): 50 µg/mL
- MIC against C. diversus (Citrobacter diversus; [6]): 25 µg/mL
- MIC against M. catarrhalis (Moraxella catarrhalis; [7]): 12.5 µg/mL
- MIC against P. mirabilis (Proteus mirabilis; [8]): 25 µg/mL
- MIC against P. vulgaris (Proteus vulgaris; [9]): 25 µg/mL
- MIC against S. marcescens (Serratia marcescens; [10]): 25 µg/mL

Substance: PRT634 (DIDECQHRHLCAHGQCRNTEGSFQCVCDQGYRASGLGDHCE; listed as Homo sapiens)
- MIC (E. coli DH5α): 12.5 µg/mL
- MIC E. coli BL21 (E. coli BL21; 96-well plate, 37° C., 10 h): 25 µg/mL
- MIC P. aeruginosa (Pseudomonas aeruginosa; 96-well plate, 37° C., 10 h): 50 µg/mL
- MIC K. pneumonia (Klebsiella pneumonia; 96-well plate, 37° C., 10 h): 25 µg/mL
- MIC E. cloacae (Enterobacter cloacae; 96-well plate, 37° C., 10 h): 12.5 µg/mL
- MIC A. hydrophila (Aeromonas hydrophila; 96-well plate, 37° C., 10 h): 25 µg/mL
- MIC C. diversus (Citrobacter diversus; 96-well plate, 37° C., 10 h): 12.5 µg/mL
- MIC M. catarrhalis (Moraxella catarrhalis; 96-well plate, 37° C., 10 h): 25 µg/mL
- MIC P. mirabilis (Proteus mirabilis; 96-well plate, 37° C., 10 h): 25 µg/mL
- MIC P. vulgaris (Proteus vulgaris; 96-well plate, 37° C., 10 h): 12.5 µg/mL
- MIC S. marcescens (Serratia marcescens; 96-well plate, 37° C., 10 h): 25 µg/mL
